In US11759480B2, “Compositions and methods for CAR T cell therapy” (ENDOCYTE, INC., priority 2017, dated 2023):

How the values were obtained:
FR+ HEK-FRa xenografts = test: FITC-CAR-T proliferation in HEK-FRa s.c. xenograft model (Example 37); assay type: in vivo, mice; conditions: 500 nmol/kg three times per week
Protocol: The evaluation of FITC-CAR-T proliferation and related toxicity in both naïve mice and mice bearing FR+ tumor xenografts was tested. To evaluate whether FITC-CAR-T proliferation in vivo is dependent on the co-existence of the bridge (e.g. EC17) and the tumor antigen (e.g. folate receptor), FITC-CAR-T proliferation in vivo was compared in naïve mice and mice bearing FR+ tumor xenografts, either with or without EC17. 5-8 million CAR-T cells (as indicated in FIGS. 42 and 43) were administered (i.v.) into naïve mice without tumors and mice bearing FR+ tumor xenografts (80-200 mm3). 500 nmol/kg EC17 was dosed 4 hours before and three times per week post CAR-T administration, if desired. Mice were monitored for body weight changes and CAR-T cell count in blood circulation; some mice were also euthanized weekly to evaluate organs. […] CAR-T cell count in blood samples was also compared to evaluate CAR-T proliferation. […] Since the enlargement of spleen size is another indicator for CAR-T proliferation in vivo, spleen size was also measured as shown in FIG. 43B.
For FIG. 42, the MDA-MB-231 s.c. model was used. For FIG. 43A, the HEK-FRa s.c. xenograft model was used. For FIG. 43B, the MDA-MB-231 s.c. model was used.

MDA-MB-231 = test: CAR-T and EC17 therapy-related toxicity versus tumor size (Example 46); assay type: in vivo, NSG mice
Protocol: To explore whether CAR-T therapy related toxicity is dependent on tumor load, NSG mice were s.c. implanted with MDA-MB-231. Ten mice with different tumor sizes ranging between 150-900 mm^3 were selected for this study. For the CAR-T cells, 10.5 million GFP+FITC-CAR-T cells were i.v. injected followed by 500 nmol/kg EC17 administration 48 hours later (FIG. 71A). Body weights of mice were compared between before CAR-T injection and 18 hours post EC17 administration. […] With higher tumor burden, mice lost more body weight after CAR-T and EC17 treatment. […] Plasma samples were separated immediately and stored at −20° C. until the analysis of cytokine levels using a human cytokine detection kit (Biolegend). […] With higher tumor burden, more IL-6 was produced after CAR-T and EC17 treatment. IL-6 has been widely reported to be the predicting biomarker for severe cytokine release syndrome in human patients with liquid tumors when they are treated with conventional CAR-T therapy.

OV90 = test: FITC-CAR-T/EC17 therapy, OV90 model (Example 28); assay type: in vivo, NSG mice; conditions: 500 nmol/kg weekly, 5 million FITC-CAR-T
Protocol: (§1) To test whether FITC-CAR-T/EC17 therapy has anti-tumor activity in various FR+ tumor models, NSG mice were subcutaneously implanted with MDA-MB-231 (triple negative breast cancer cell line), OV90 (human ovarian cancer cell line), KB (human cervical adenocarcinoma cell line), SKOV-3 (human ovarian carcinoma cell line), or HEK293-FRa (HEK293 stably-transfected with human FRa). When tumor size reached […], one dose of EC17 at 500 nmol/kg of body weight was injected by tail vein followed with administering of 5 million FITC-CAR-T cells 4 hours later. 500 nmol/kg EC17 was dosed once every week after the initial EC17/CAR-T administration (about day 7), tumor size and body weights of mice were monitored three times per week. The EC17 dosing days were labeled as green dashed vertical lines in the graph. […] EC17 dose-dependent temporary body weight loss was also observed in all tumor bearing mice, indicating the activation of CAR-Ts is EC17-dependent in these mice.

MDA-MB-231 cells = test: Control of CRS with bridge molecules in vivo (Example 43); parameters: species or system NSG mice
Protocol: Mice were maintained on folic acid-deficient diet (TD.95247, Envigo) in order to reduce the level of folic acid in mice to a physiological levels found in humans. Tumors were measured every other day with calipers, and tumor volume was calculated according to equation: Tumor volume=½(L×W^2) where L is the longest axis of the tumor and W is the axis perpendicular to L. Mouse blood was also collected to measure cytokine levels (e.g. IL-2, IL-6, IFNγ, and TNFα) using LEGENDplex bead-based immunoassay (Biolegend, CA) and systemic toxicity was monitored by measuring body weight loss. All animal care and use followed by National Institutes of Health (NIH) guidelines and all experimental protocols were approved by the Purdue Animal Care and Use Committee.

HEK293-FRa = test: FITC-CAR-T/EC17 therapy, HEK293-FRa model (Example 28); assay type: in vivo, NSG mice; conditions: 500 nmol/kg weekly, 5 million FITC-CAR-T
Protocol: as §1

Nc1nc2ncc(CNc3ccc(C(=O)NC(CCC(=O)NCCNC(=S)Nc4ccc(-c5c6ccc(=O)cc-6oc6cc(O)ccc56)c(C(=O)O)c4)C(=O)O)cc3)nc2c(=O)[nH]1 (stereo not shown) [EC17, FITC-Folate]
FITC-CAR-T proliferation (FR+ HEK-FRa xenografts): rapid proliferation | cytokine release syndrome grade (MDA-MB-231; 18 hours after 500 nmol/kg, 10.5 million CAR-T): 2 grade | body weight changes (MDA-MB-231; tumors 150-900 mm^3): tumor size dependent | production of IL-6 (MDA-MB-231; tumors 150-900 mm^3): tumor size dependent | cures (OV90): 50% | stable disease (OV90): 50% | tumor outcome (MDA-MB-231 cells; 500 nmole/kg, days 4 and 6 omitted): complete tumor eradication | mice requiring euthanasia by day 8 (MDA-MB-231 cells; 15×10^6 CAR T cells, continuous alternate day 500 nmole/kg): three of the mice | body weight (MDA-MB-231 cells; continuous dosing of 500 nmole/kg, 15×10^6 CAR T cells): dramatic and continuous weight loss | therapeutic benefit (MDA-MB-231 cells; continuous dosing schedule): little therapeutic benefit | tumor outcome (MDA-MB-231 cells; continuously treated): rapid increase in tumor growth | time to resolution of transient weight loss (MDA-MB-231 cells; escalation 0.5 to 500 nmole/kg, 15×10^6 CAR T cells): ≤ 4 days | tumor outcome (MDA-MB-231 cells; gradual dose escalation regimen): complete cures | tumor outcome (MDA-MB-231 cells; interrupted dosing): complete remission of their tumors | body weight (MDA-MB-231 cells; interrupted dosing (days 4 and 6 omitted)): only a moderate weight loss from which they rapidly recovered | tumor outcome (MDA-MB-231 cells; one dose per week): complete cures | body weight (MDA-MB-231 cells; single injection per week): no weight loss | body weight (MDA-MB-231 cells; three doses per week, 5×10^6 CAR T cells): significant animal weight loss | body weight loss (MDA-MB-231 cells; tumor-bearing mice, within 4 days, 5×10^6 CAR T cells + 500 nmoles/kg): ~8% | body weight (MDA-MB-231 cells; tumor-free mice): no weight loss was detected | toxicity (MDA-MB-231 cells; two doses per week): less toxicity | tumor response (HEK293-FRa): progressive disease
